Measurements published in US8093028B2, “Engineered glycosyltransferases with expanded substrate specificity” (Wisconsin Alumni Research Foundation, priority 2007, dated 2012).

Tests used:
Format in all cases: biochemical
WT OleD = molecular target: T1, WT OleD (Streptomyces antibioticus, UniProt Q53685, P55A/R82V/R83E/T84P); experiment: Fluorescence-based glycosyltransferase assay in E. coli crude cell extracts
T1 construct: made in house; host or cells: E. coli BL21(DE3)pLysS, plasmid pET28/OleD
Method: Individual colonies were used to inoculate wells of a 96-deep well microtitre plate wherein each well contained 1 ml of LB medium supplemented with 50 μg/ml kanamycin. Culture plates were tightly sealed with AeraSeal™ breathable film (Research Products International Corp.). After cell growth at 37° C. for 18 h with shaking at 350 rpm, 100 μl of each culture was transferred to a fresh deep-well plate containing 1 ml of LB medium supplemented with 50 μg/ml kanamycin. The original plate was sealed and stored at 4° C., or a glycerol copy made by mixing 100 μl of each culture with 100 µl 50% (v/v) glycerol and storing at −80° C. The freshly inoculated plate was incubated at 37° C. for 2-3 h with shaking at 350 rpm. […]
For the assay, cleared supernatant was mixed with an equal volume (501) of 50 mM Tris-HCl (pH 8.0) containing 10 mM MgCl2, 0.2 mM 4-Me-umb (FIG. 1: 4), and 1.0 mM UPDG (FIG. 3: 2) using a Biomek FX Liquid Handling Workstation (Beckman Coulter, Fullerton, Calif.). Upon mixing, the fluorescence at excitation 350 nm and emission 460 nm was measured using a FLUOstar Optima plate reader (BMG Labtechnologies, Durham, N.C.) and the reactions incubated for 4 h at 30° C., at which time the fluorescence measurement was repeated. Activity of the clones was expressed as the difference in fluorescence intensity between 0 h and 3 h.

OleD P67T/S132F/A242V [1] = molecular target: T2, OleD P67T/S132F/A242V (Streptomyces antibioticus, UniProt Q53685, A242V/P67T/S132F)
T2 construct: made in house; host or cells: E. coli (site-directed mutant of pET28/OleD)
Method: Kinetic parameters kcat and Km were determined with both 4-Me-umb FIG. 1: 4 and UPDG as variable substrates using assay conditions as described above. […] Each experiment was performed in triplicate. Initial velocities were fitted to the Michaelis-Menten equation using Sigma Plot.
Enzyme assays were carried out in a total volume of 500 μl 50 mM Tris-HCl (pH 8.0) containing 5 mM MgCl2, and 50 μg pure enzyme. Kinetic parameters kcat and Km were determined with both 4-Me-umb FIG. 1: 4 and UPDG (FIG. 3: 2) as variable substrates. […] Each experiment was performed in triplicate. Initial velocities were fitted to the Michaelis-Menten equation using Sigma Plot.

OleD P67T/S132F/A242V [2] = molecular target: T2, OleD P67T/S132F/A242V; experiment: Specific activity with novobiocic acid as acceptor and UDP-Glc; settings: UDP-Glc donor
Method: (§1) Determination of specific activity with 1 or 4 as acceptor. Enzyme reactions were carried out in a total volume of 100 μl/50 mM Tris-HCl (pH8.0) containing 5 mM MgCl2, 200 μM (FIG. 9: 1) or (FIG. 9: 4), 5 mM (FIG. 12: 5), and typically 10-50 μg pure enzyme. At a suitable time interval during which rate of product formation was linear with time (typically 2-20 min), reactions were quenched with 100 μl MeOH, and the samples centrifuged at 10,000 g for 10 min. Supernatants were analyzed by analytical reverse-phase HPLC with a Gemini 5μ C18 column (Phenomenex) using a gradient of 10-90% CH3CN in 0.1% trifluoroacetic acid (TFA)/H2O in 20 min, with detection at 254 nm. […] The identity of (FIG. 9: 7) was confirmed by LC-MS and NMR while the […] of glucoside (FIG. 9: 6) was confirmed by co-elution with a commercial standard and LC-MS analysis. HPLC peak areas were integrated, and the product concentrations calculated as a percent of the total peak area. Specific activity was expressed as nmols product formed/min/mg protein.

OleD P67T/I112K/A242V = OleD P67T/I112K/A242V (Streptomyces antibioticus, UniProt Q53685, A242V/I112K/P67T); experiment: as above; settings: UDP-Glc donor
Method: as §1

Structure (SMILES) | activity in E. coli pET28/OleD crude cell extracts versus extracts not over-expressing OleD (WT OleD) | kcat (OleD P67T/S132F/A242V [1]; acceptor 4 varied) | efficiency of glucosylation compared to the WT enzyme (OleD P67T/S132F/A242V [1]; kcat/Km, unnatural acceptor 4-methyl-umbelliferone) | Km (OleD P67T/S132F/A242V [1]; read-out: apparent Km, named substrate varied, other substrate fixed) | improvement in glucosylation activity, P67T/S132F/A242V compared to WT OleD (OleD P67T/S132F/A242V [2]) | improvement in specific activity, P67T/I112K/A242V over P67T/S132F/A242V (OleD P67T/I112K/A242V) | improvement, P67T/I112K/A242V over the parent P67T/I112T/A242V (OleD P67T/I112K/A242V; purified enzymes)
Cc1cc(=O)oc2cc(O)ccc12 [4-Me-umb (4), 7-hydroxy-4-methylcoumarin] | ~2 fold | 0.0247 s⁻¹ | ~60 fold | 140 µM | – | – | –
CC(C)=CCc1cc(C(=O)Nc2c(O)c3ccc(O)c(C)c3oc2=O)ccc1O [novobiocic acid (29), novobiocic acid] | – | – | – | – | five-fold | twenty-eight | seven
